Assay results published in ChEMBL document CHEMBL1143087, “Indirect oxidation of the antitumor agent procarbazine by tyrosinase--possible application in designing anti-melanoma prodrugs” (Bioorg Med Chem Lett, 2008).
Calls of active or inactive are those of the source. No cut-off for these calls is given here.

Molecular target: T1, Tyrosinase (Agaricus bisporus) (UniProt O42713)
T1 sequence (whole entry): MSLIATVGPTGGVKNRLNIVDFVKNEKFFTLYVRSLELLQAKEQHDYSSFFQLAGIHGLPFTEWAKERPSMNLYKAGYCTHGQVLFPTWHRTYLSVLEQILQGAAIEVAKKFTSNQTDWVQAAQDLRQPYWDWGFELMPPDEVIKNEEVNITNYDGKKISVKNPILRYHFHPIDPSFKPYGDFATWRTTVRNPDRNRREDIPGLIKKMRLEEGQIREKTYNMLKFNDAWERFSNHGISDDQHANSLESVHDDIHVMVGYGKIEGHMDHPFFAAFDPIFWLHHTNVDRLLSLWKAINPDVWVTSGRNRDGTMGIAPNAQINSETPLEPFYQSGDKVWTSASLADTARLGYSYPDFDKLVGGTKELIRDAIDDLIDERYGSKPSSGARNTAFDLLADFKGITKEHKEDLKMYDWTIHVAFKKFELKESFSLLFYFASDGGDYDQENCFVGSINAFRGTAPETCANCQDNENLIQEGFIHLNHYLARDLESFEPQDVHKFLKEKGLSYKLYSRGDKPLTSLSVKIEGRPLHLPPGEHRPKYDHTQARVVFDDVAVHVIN
Assay: Increase in mushroom tyrosinase catalysed oxidation of 4-tert-butyl catechol assessed as oxygen consumption after 30 mins

Activity: Active
Compound: CNNCc1ccc(C(=O)NC(C)C)cc1
